# Reference: patent publication US11008325B2, “Inhibitors of cancer invasion, attachment, and/or metastasis” (VIRGINIA COMMONWEALTH UNIVERSITY, priority 2016, dated 2021)
# Assays:
# Format in all cases: cell-based, human
# [1] = test system: T98G cells; assay: trans-well Matrigel invasion assay; settings: PDZ1i versus DMSO
# Protocol: (§1) FIGS. 7A-7B. FIG. 7A. Im-PHFA, primary immortal human fetal astrocyte cells were infected with an MDA-9/Syntenin expression plasmid carrying adenovirus. 48 hrs post-infection both the control and MDA-9/Syntenin overexpressing cells were treated with DMSO or PDZ1i followed by seeding in a trans-well Matrigel invasion assay and stained after 24 hrs. FIG. 7B. T98G and U87 were treated with DMSO or PDZ1i and seeding in a trans-well Matrigel invasion assay and stained after 24 hrs. Invasion was quantified from 4 random fields. Data represents fold changes and average±S.D.
# (§2) Invasion was measured using 24-well BioCoat cell culture inserts (BD Biosciences, Bedford, Mass.) with an 8-μm-porosity polyethylene terephthalate membrane coated with Matrigel Basement Membrane Matrix (100 μg/cm^2). Briefly, the Matrigel was allowed to rehydrate for 2 h at room temperature by adding warm, serum-free DMEM. The wells of the lower chamber were filled with medium containing 10% fetal bovine serum. […] Cells remaining on the upper surface of the filters were removed by wiping with a cotton swab, and invasion was determined by counting the cells that migrated to the lower side of the filter using at least 5 fields per insert at 100× magnification. […] Data from triplicate experiments were expressed as mean±95% confidence interval (CI).
# [2] = test system: Im-PHFA cells overexpressing MDA-9/Syntenin; assay: trans-well Matrigel invasion assay; settings: after MDA-9/Syntenin overexpression
# Protocol: as §1, §2
# [3] = test system: RWPE-1 cells overexpressing mda-9; assay: modified Boyden Chamber invasion assay
# Protocol: FIGS. 17A-17H. Effect of PDZ1i on invasion, MDA-9/IGF-R1 interaction and IGF-R1, STAT3 and SRC phosphorylation. FIG. 17A) Different cancer cells (25,000 cells/well) from various anatomic origins were pre-treated with either DMSO (vehicle) or PDZ1i (dose as indicated) and invasion ability was assayed using modified Boyden Chamber according to the manufacturer's instructions. Photomicrographs were taken at 10× magnification and quantification of the results of three independent experiments is provided in the graphs. The data presents mean±S.D. B) The designated cells were treated with DMSO or PDZ1i and invasion properties were determined using a modified Boyden Chamber assay (BD bioscience). RWPE-1 mda-9: mda-9 transiently overexpressing cell line. […] FIG. 17E) Cells were growth starved for 24 h and treated with either DMSO or PDZ1i (dose indicated in μM) for 6 h. Cells were treated with human recombinant IGFBP-2 (hIGFBP-2, 10 ng/ml) for 2 h, lysates were prepared and western blot analysis was conducted with specific antibodies. […] Cells were treated with human recombinant IL-6 (hIGFBP-2, 1 ng/ml) for 2 h, cell lysates were prepared and analyzed by western blotting. […]
# Boyden chamber assays were done to investigate the invasive properties of cancer cells^26, 27. […] After 18 h, invasive cells were photographed and analyzed.
compound,measurement,setting,value
"Cc1cc(NC(=O)c2nc3[nH]c4c(c(=O)n3n2)CCC4)c(C)cc1NC(=O)CCc1nnc(-c2ccccc2)o1 [113B7, N-(2,5-dimethyl-4-(3-(5-phenyl-1,3,4-oxadiazol-2-yl)propanamido)phenyl)-8-oxo-5,6,7,8-tetrahydro-4H-cyclopenta[d][1,2,4]triazolo[1,5-a]pyrimidine-2-carboxamide]",invasion,[1],effectively inhibited invasion
same,MDA-9/Syntenin-induced invasion,[2],effective in inhibiting MDA-9/Syntenin-induced invasion
same,mda-9-mediated invasion,[3],significantly attenuated
